Calls of active or inactive are those of the source. The calls are words filed in the database; no cut-off is given here.
How the values were obtained:
MDA-MB-435 = test: Growth inhibition of human MDA-MB-435 cells; assay type: functional
A549 = test: Growth inhibition of human A549/ATCC cells; assay type: functional
[1] = Growth inhibition of human RXF393 cells; assay type: functional
[2] = Antitumor activity against mouse AKATOL cells implanted in mouse assessed as tumor growth inhibition at 40 mg/kg, ip dosed daily for 5 days measured 1 day after treatment termination; assay type: functional; conditions: route intraperitoneal, read-out: TGI
CCRF-CEM = test: Growth inhibition of human CCRF-CEM cells; assay type: functional
NCI60 = test: Cytotoxicity against human NCI60 cells assessed as cell growth at 10 uM; assay type: functional
Mus musculus [3] = test: Toxicity in mouse P388 cells implanted mouse assessed as mean ascites volume at 40 mg/kg, ip dosed daily for 5 days administered 24 hrs after tumor implantation; assay type: organism-based; design: dose 40 mg/kg, route intraperitoneal; conditions: in vivo
[4] = test system: Lewis lung carcinoma cell line; test: Antitumor activity against mouse LLC cells implanted in mouse assessed as tumor growth inhibition at 40 mg/kg, ip dosed daily for 5 days measured 19 days after treatment termination; assay type: functional; conditions: route intraperitoneal, read-out: TGI
NCI-H23 = test: Growth inhibition of human NCI-H23 cells; assay type: functional
K562 = test: Growth inhibition of human K562 cells; assay type: functional
[5] = Growth inhibition of human LOXIMVI cells; assay type: functional; conditions: LOX IMVI
IGROV-1 = test: Growth inhibition of human IGROV1 cells; assay type: functional
CAKI-1 = test: Growth inhibition of human CAKI-1 cells; assay type: functional
Mus musculus [6] = test: Toxicity in mouse P388 cells implanted mouse assessed as mouse mortality at 40 mg/kg, ip dosed daily for 5 days administered 24 hrs after tumor implantation; assay type: organism-based; design: dose 40 mg/kg, route intraperitoneal; conditions: in vivo
[7] = Antitumor activity against mouse AKATOL cells implanted in mouse assessed as tumor growth inhibition at 40 mg/kg, ip dosed daily for 5 days measured 19 days after treatment termination; assay type: functional; conditions: route intraperitoneal, read-out: TGI
[8] = Growth inhibition of human UACC62 cells; assay type: functional
[9] = test system: Lewis lung carcinoma cell line; test: Antitumor activity against mouse LLC cells implanted in mouse assessed as increase in life span at 40 mg/kg, ip dosed daily for 5 days; assay type: functional; conditions: 120 h, route intraperitoneal
[10] = Growth inhibition of human OVCAR5 cells; assay type: functional
P388 = test: Antitumor activity against mouse P388 cells implanted in mouse assessed as increase in life span at 60 mg/kg, ip dosed daily for 5 days administered 24 hrs after tumor implantation; assay type: functional; conditions: route intraperitoneal
[11] = Growth inhibition of human HOP92 cells; assay type: functional
[12] = Growth inhibition of human OVCAR3 cells; assay type: functional
SNB-19 = test: Growth inhibition of human SNB19 cells; assay type: functional
Mus musculus [13] = test: Toxicity in mouse P388 cells implanted mouse assessed as mean spleen weight at 10 mg/kg, ip dosed daily for 5 days administered 24 hrs after tumor implantation; assay type: organism-based; design: dose 10 mg/kg, route intraperitoneal; conditions: in vivo
[14] = Growth inhibition of human SF295 cells; assay type: functional
NCI-H322M = test: Growth inhibition of human NCI-H322M cells; assay type: functional
[15] = Antitumor activity against mouse AKATOL cells implanted in mouse assessed as tumor growth inhibition at 40 mg/kg, ip dosed daily for 5 days measured 8 to 9 days after treatment termination; assay type: functional; conditions: route intraperitoneal, read-out: TGI
SR = test: Growth inhibition of human SR cells; assay type: functional
Mus musculus [16] = test: Toxicity in mouse Ehrlich carcinoma cells implanted mouse assessed as mean spleen weight at 50 mg/kg, ip dosed daily for 5 days administered 48 hrs after tumor implantation; assay type: organism-based; design: dose 50 mg/kg, route intraperitoneal; conditions: in vivo
NCI-H522 = test: Growth inhibition of human NCI-H522 cells; assay type: functional
HOP-62 = test: Growth inhibition of human HOP62 cells; assay type: functional
[17] = test system: Lewis lung carcinoma cell line; test: Antitumor activity against mouse LLC cells implanted in mouse assessed as tumor growth inhibition at 40 mg/kg, ip dosed daily for 5 days measured 16 days after treatment termination; assay type: functional; conditions: route intraperitoneal, read-out: TGI
[18] = test system: Lewis lung carcinoma cell line; test: Antitumor activity against mouse LLC cells implanted in mouse assessed as tumor growth inhibition at 40 mg/kg, ip dosed daily for 5 days measured 12 days after treatment termination; assay type: functional; conditions: route intraperitoneal, read-out: TGI
Mus musculus [19] = test: Toxicity in mouse P388 cells implanted mouse assessed as mean ascites volume at 60 mg/kg, ip dosed daily for 5 days administered 24 hrs after tumor implantation; assay type: organism-based; design: dose 60 mg/kg, route intraperitoneal; conditions: in vivo
[20] = Antitumor activity against mouse CA-755 cells implanted in mouse assessed as tumor growth inhibition at 40 mg/kg, ip dosed daily for 5 days measured 5 days after treatment termination; assay type: functional; conditions: CA-755, ip, 120 h, route intraperitoneal, read-out: TGI
Mus musculus [21] = test: Toxicity in mouse CA-755 cells implanted mouse assessed as mouse mortality at 40 mg/kg, ip dosed daily for 5 days; assay type: organism-based; design: dose 40 mg/kg, route intraperitoneal; conditions: in vivo, 120 h
SF-268 = test: Growth inhibition of human SF268 cells; assay type: functional
[22] = Growth inhibition of human COLO205 cells; assay type: functional
[23] = Growth inhibition of human SF539 cells; assay type: functional
MCF7 = test: Growth inhibition of human MCF7 cells; assay type: functional
Mus musculus [24] = test: Toxicity in mouse P388 cells implanted mouse assessed as mean ascites volume at 20 mg/kg, ip dosed daily for 5 days administered 24 hrs after tumor implantation; assay type: organism-based; design: dose 20 mg/kg, route intraperitoneal; conditions: in vivo
[25] = Growth inhibition of human PC3 cells; assay type: functional
[26] = read-out: pLC50 (the source's name) (converted)

COC(=O)[C@]1(C)CCC[C@]2(C)[C@H]3C[C@H]4C(C(C)C)=C[C@]3(CC[C@H]21)[C@@H]1/C(=N/O)CC/C(=N\O)[C@@H]14
GI50 (MDA-MB-435): 4.9 µM
CC50 (MDA-MB-435; [26]): 95.5 µM
TGI (MDA-MB-435; read-out: pTGI (converted)): 23.4 µM
GI50 (A549; A549): 3.09 µM
CC50 (A549; A549, read-out: pLC50 (converted)): > 100 µM
TGI (A549; A549, read-out: pTGI (converted)): 10.5 µM
GI50 ([1]; RXF 393): 2.14 µM
CC50 ([1]; RXF 393, read-out: pLC50 (the source's name) (converted)): 8.91 µM
TGI ([1]; RXF 393, read-out: pTGI (converted)): 4.37 µM
inhibition in vivo at 40 mg/kg [2]: 57%
GI50 (CCRF-CEM): 2.4 µM
CC50 (CCRF-CEM; [26]): 50.1 µM
TGI (CCRF-CEM; read-out: pTGI (converted)): 7.08 µM
Activity (NCI60): Active
Activity (Mus musculus [3]): 1.2 mL
inhibition in vivo at 40 mg/kg [4]: 37%
GI50 (NCI-H23): 3.72 µM
CC50 (NCI-H23; [26]): 93.3 µM
TGI (NCI-H23; read-out: pTGI (converted)): 15.8 µM
GI50 (K562; K562): 3.24 µM
CC50 (K562; K562, read-out: pLC50 (converted)): > 100 µM
TGI (K562; K562, read-out: pTGI (converted)): 11.7 µM
GI50 [5]: 2 µM
CC50 [5, 26]: 7.76 µM
TGI ([5]; read-out: pTGI (converted)): 3.98 µM
GI50 (IGROV-1; IGROV-1): 4.57 µM
CC50 (IGROV-1; IGROV-1, read-out: pLC50 (converted)): > 100 µM
TGI (IGROV-1; IGROV-1, read-out: pTGI (converted)): 21.9 µM
GI50 (CAKI-1; CAKI-1): 7.08 µM
CC50 (CAKI-1; CAKI-1, read-out: pLC50 (converted)): > 100 µM
TGI (CAKI-1; CAKI-1, read-out: pTGI (converted)): 32.4 µM
Activity (Mus musculus [6]): Non-toxic
inhibition in vivo at 40 mg/kg [7]: 44%
GI50 ([8]; UACC-62): 4.68 µM
CC50 ([8]; UACC-62, read-out: pLC50 (the source's name) (converted)): 67.6 µM
TGI ([8]; UACC-62, read-out: pTGI (converted)): 22.4 µM
ILS at 40 mg/kg [9]: 18%
GI50 ([10]; OVCAR-5): 5.62 µM
CC50 ([10]; OVCAR-5, read-out: pLC50 (the source's name) (converted)): 63.1 µM
TGI ([10]; OVCAR-5, read-out: pTGI (converted)): 20 µM
ILS at 60 mg/kg (P388): -10%
GI50 ([11]; HOP-92): 2.09 µM
CC50 ([11]; HOP-92, read-out: pLC50 (the source's name) (converted)): 39.8 µM
TGI ([11]; HOP-92, read-out: pTGI (converted)): 5.01 µM
GI50 ([12]; OVCAR-3): 2.4 µM
CC50 ([12]; OVCAR-3, read-out: pLC50 (the source's name) (converted)): 15.8 µM
TGI ([12]; OVCAR-3, read-out: pTGI (converted)): 5.37 µM
GI50 (SNB-19): 11.5 µM
CC50 (SNB-19; [26]): 55 µM
TGI (SNB-19; read-out: pTGI (converted)): 25.1 µM
Activity (Mus musculus [13]): 95 mg
GI50 ([14]; SF-295): 5.89 µM
CC50 ([14]; SF-295, read-out: pLC50 (the source's name) (converted)): 64.6 µM
TGI ([14]; SF-295, read-out: pTGI (converted)): 21.4 µM
GI50 (NCI-H322M): 2.69 µM
CC50 (NCI-H322M; [26]): 20.9 µM
TGI (NCI-H322M; read-out: pTGI (converted)): 6.17 µM
inhibition in vivo at 40 mg/kg [15]: 41%
GI50 (SR): 2 µM
CC50 (SR; [26]): 25.1 µM
TGI (SR; read-out: pTGI (converted)): 4.79 µM
Activity (Mus musculus [16]): 104 mg
GI50 (NCI-H522): 3.8 µM
CC50 (NCI-H522; [26]): 93.3 µM
TGI (NCI-H522; read-out: pTGI (converted)): 17.8 µM
GI50 (HOP-62): 15.1 µM
CC50 (HOP-62; [26]): 95.5 µM
TGI (HOP-62; read-out: pTGI (converted)): 38 µM
inhibition in vivo at 40 mg/kg [17]: 34%
inhibition in vivo at 40 mg/kg [18]: 30%
Activity (Mus musculus [19]): 0.6 mL
inhibition in vivo at 40 mg/kg [20]: 72%
Activity (Mus musculus [21]): Non-toxic
GI50 (SF-268): 4.37 µM
CC50 (SF-268; [26]): 55 µM
TGI (SF-268; read-out: pTGI (converted)): 17 µM
GI50 ([22]; COLO 205): 2.19 µM
CC50 ([22]; COLO 205, read-out: pLC50 (the source's name) (converted)): 8.51 µM
TGI ([22]; COLO 205, read-out: pTGI (converted)): 4.37 µM
GI50 ([23]; SF-539): 9.12 µM
CC50 ([23]; SF-539, read-out: pLC50 (the source's name) (converted)): 46.8 µM
TGI ([23]; SF-539, read-out: pTGI (converted)): 21.4 µM
GI50 (MCF7): 1.78 µM
CC50 (MCF7; [26]): 9.55 µM
TGI (MCF7; read-out: pTGI (converted)): 4.07 µM
Activity (Mus musculus [24]): 0.57 mL
GI50 ([25]; PC-3): 4.37 µM
CC50 ([25]; PC-3, read-out: pLC50 (the source's name) (converted)): 45.7 µM
TGI ([25]; PC-3, read-out: pTGI (converted)): 15.1 µM
